Assay results reported in paper PMC4840931 (Clinical cancer research : an official journal of the …, 2015).
Where two headings read alike, the source gives them in different places. Marks after values point to notes of the source that are not given here.

Experiments:
[1] = test system: patients with advanced solid tumors; format: in vivo
[2] = test system: patients with advanced solid tumors; experiment: Tumor response by RECIST version 1.0; format: in vivo, human
[3] = Plasma pharmacokinetics; conditions: human, in vivo
[4] = Urinary excretion of unchanged lenvatinib; format: in vivo, human; conditions: for fe (fraction of the dose excreted in urine): mean (SD)
[5] = test system: human umbilical vein endothelial cell; conditions: cited from earlier work
[6] = test system: human umbilical vein endothelial cell; conditions: cited from earlier work; remark: listed apart in the source
[7] = test system: human lung (H146) mouse xenograft; conditions: cited from earlier work
[8] = test system: breast cancer (MDA-MB-231) mouse xenograft; conditions: cited from earlier work
[9] = cited from earlier work

COc1cc2nccc(Oc3ccc(NC(=O)NC4CC4)c(Cl)c3)c2cc1C(N)=O [lenvatinib]
Study drug–related TEAE, Hypertension, CTCAE grade 3 ([1]; Entire Study Population (N=77)): 13 (16.9) n (%)
Study drug–related TEAE, Hypertension, CTCAE grade 3+4 ([1]; Entire Study Population (N=77)): 13 (16.9) n (%)
Study drug–related TEAE, Diarrhea, Total ([1]; Melanoma Expansion Cohort 10.0 mg bid (n=26)): 8 (30.8) n (%)
Died during therapy or within 30 days of the last treatment ([1]; expanded melanoma cohort (n=26)): 30.8%
Grade 3 study drug–related toxicity: body weight reduction ([1]; human, in vivo): 8%
Grade 3 study drug–related toxicity: diarrhea ([1]; human, in vivo): 5%
Grade 3 study drug–related toxicity: fatigue ([1]; human, in vivo): 7%
Grade 3 study drug–related toxicity: hypertension ([1]; human, in vivo): 17%
Grade 3 study drug–related toxicity: proteinuria ([1]; human, in vivo): 5%
Grade 4 proteinuria, treatment-related ([1]; human, in vivo): 1 event
Grade 4 reversible posterior leukoencephalopathy syndrome, treatment-related ([1]; human, in vivo): 1 event
Grade 4 thrombocytopenia, treatment-related ([1]; human, in vivo): 1 event
Grade 4 thrombotic thrombocytopenic purpura, treatment-related ([1]; human, in vivo): 1 event
Study drug–related TEAE, Anorexia, CTCAE grade 1 ([1]; human, in vivo): 8 (10.4) n (%)
Study drug–related TEAE, Anorexia, CTCAE grade 2 ([1]; human, in vivo): 11 (14.3) n (%)
Study drug–related TEAE, Anorexia, CTCAE grade 3 ([1]; human, in vivo): 0 n (%)
Study drug–related TEAE, Anorexia, CTCAE grade 3+4 ([1]; human, in vivo): 0 n (%)
Study drug–related TEAE, Anorexia, CTCAE grade 4 ([1]; human, in vivo): 0 n (%)
Study drug–related TEAE, Anorexia, Total ([1]; human, in vivo): 19 (24.7) n (%)
Study drug–related TEAE, Any AE, CTCAE grade 1 ([1]; human, in vivo): 6 (7.8) n (%)
Study drug–related TEAE, Any AE, CTCAE grade 2 ([1]; human, in vivo): 30 (39.0) n (%)
Study drug–related TEAE, Any AE, CTCAE grade 3 ([1]; human, in vivo): 28 (36.4) n (%)
Study drug–related TEAE, Any AE, CTCAE grade 3+4 ([1]; human, in vivo): 32 (41.6) n (%)
Study drug–related TEAE, Any AE, CTCAE grade 4 ([1]; human, in vivo): 4 (5.2) n (%)
Study drug–related TEAE, Any AE, Total ([1]; human, in vivo): 68 (88.3) n (%)
Study drug–related TEAE, Diarrhea, CTCAE grade 1 ([1]; human, in vivo): 7 (9.1) n (%)
Study drug–related TEAE, Diarrhea, CTCAE grade 2 ([1]; human, in vivo): 6 (7.8) n (%)
Study drug–related TEAE, Diarrhea, CTCAE grade 3 ([1]; human, in vivo): 4 (5.2) n (%)
Study drug–related TEAE, Diarrhea, CTCAE grade 3+4 ([1]; human, in vivo): 4 (5.2) n (%)
Study drug–related TEAE, Diarrhea, CTCAE grade 4 ([1]; human, in vivo): 0 n (%)
Study drug–related TEAE, Diarrhea, Total ([1]; human, in vivo): 17 (22.1) n (%)
Study drug–related TEAE, Fatigue, CTCAE grade 1 ([1]; human, in vivo): 10 (13.0) n (%)
Study drug–related TEAE, Fatigue, CTCAE grade 2 ([1]; human, in vivo): 17 (22.1) n (%)
Study drug–related TEAE, Fatigue, CTCAE grade 3 ([1]; human, in vivo): 5 (6.5) n (%)
Study drug–related TEAE, Fatigue, CTCAE grade 3+4 ([1]; human, in vivo): 5 (6.5) n (%)
Study drug–related TEAE, Fatigue, CTCAE grade 4 ([1]; human, in vivo): 0 n (%)
Study drug–related TEAE, Fatigue, Total ([1]; human, in vivo): 32 (41.6) n (%)
Study drug–related TEAE, Hypertension, CTCAE grade 1 ([1]; human, in vivo): 2 (2.6) n (%)
Study drug–related TEAE, Hypertension, CTCAE grade 2 ([1]; human, in vivo): 18 (23.4) n (%)
Study drug–related TEAE, Hypertension, CTCAE grade 4 ([1]; human, in vivo): 0 n (%)
Study drug–related TEAE, Hypertension, Total ([1]; human, in vivo): 33 (42.9) n (%)
Study drug–related TEAE, Nausea, CTCAE grade 1 ([1]; human, in vivo): 9 (11.7) n (%)
Study drug–related TEAE, Nausea, CTCAE grade 2 ([1]; human, in vivo): 8 (10.4) n (%)
Study drug–related TEAE, Nausea, CTCAE grade 3 ([1]; human, in vivo): 2 (2.6) n (%)
Study drug–related TEAE, Nausea, CTCAE grade 3+4 ([1]; human, in vivo): 2 (2.6) n (%)
Study drug–related TEAE, Nausea, CTCAE grade 4 ([1]; human, in vivo): 0 n (%)
Study drug–related TEAE, Nausea, Total ([1]; human, in vivo): 19 (24.7) n (%)
Study drug–related TEAE, Proteinuria, CTCAE grade 1 ([1]; human, in vivo): 7 (9.1) n (%)
Study drug–related TEAE, Proteinuria, CTCAE grade 2 ([1]; human, in vivo): 18 (23.4) n (%)
Study drug–related TEAE, Proteinuria, CTCAE grade 3 ([1]; human, in vivo): 4 (5.2) n (%)
Study drug–related TEAE, Proteinuria, CTCAE grade 3+4 ([1]; human, in vivo): 5 (6.5) n (%)
Study drug–related TEAE, Proteinuria, CTCAE grade 4 ([1]; human, in vivo): 1 (1.3) n (%)
Study drug–related TEAE, Proteinuria, Total ([1]; human, in vivo): 30 (39.0) n (%)
Study drug–related TEAE, Weight decreased, CTCAE grade 1 ([1]; human, in vivo): 6 (7.8) n (%)
Study drug–related TEAE, Weight decreased, CTCAE grade 2 ([1]; human, in vivo): 7 (9.1) n (%)
Study drug–related TEAE, Weight decreased, CTCAE grade 3 ([1]; human, in vivo): 6 (7.8) n (%)
Study drug–related TEAE, Weight decreased, CTCAE grade 3+4 ([1]; human, in vivo): 6 (7.8) n (%)
Study drug–related TEAE, Weight decreased, CTCAE grade 4 ([1]; human, in vivo): 0 n (%)
Study drug–related TEAE, Weight decreased, Total ([1]; human, in vivo): 19 (24.7) n (%)
Study drug–related toxicity: diarrhea ([1]; human, in vivo): 22%
Study drug–related toxicity: fatigue ([1]; human, in vivo): 42%
Study drug–related toxicity: hypertension ([1]; human, in vivo): 43%
Study drug–related toxicity: nausea ([1]; human, in vivo): 25%
Study drug–related toxicity: proteinuria ([1]; human, in vivo): 39%
Dose-limiting toxicities ([1]; in vivo): no DLTs
Died during therapy or within 30 days of the last treatment ([1]; overall population n=77): 16.9%
Maximum tolerated dose (MTD) ([1]; po bid, continuous dosing, 28-day cycles): 10 mg
Durable SD ≥23 weeks ([2]; all 29 patients with melanoma): 24.1%
PD ([2]; all 29 patients with melanoma): 17.2%
PR ([2]; all 29 patients with melanoma): 10.3%
PRs/uPRs as best response ([2]; all 29 patients with melanoma): 17.2%
PR or uPR in patients with wild-type BRAF ([2]; expanded melanoma cohort, 3 of 17 patients): 17.6%
Responses (PR/uPR) by disease: lung ([2]; in vivo): 1/1
Responses (PR/uPR) by disease: melanoma ([2]; in vivo): 5/29
Responses (PR/uPR) by disease: ovarian ([2]; in vivo): 1/5
Responses (PR/uPR) by disease: pancreatic ([2]; in vivo): 1/2
Responses (PR/uPR) by disease: renal ([2]; in vivo): 1/1
Responses (PR/uPR) by disease: thyroid ([2]; in vivo): 3/6
PR/uPR as best response ([2]; overall, n=77): 15.6%
Total PR/uPR/SD≥23 weeks ([2]; overall, n=77): 40.3%
Median number of cycles after which confirmed PRs were determined ([2]; overall, range, 4–46 cycles): 18 cycles
Confirmed PR ([2]; schedule 1, 18 patients): no patient
PD ([2]; schedule 1, 18 patients): 44.4%
uPR ([2]; schedule 1, NSCLC): One
Confirmed PR ([2]; schedule 2, 33 patients): 21.2%
Durable SD ([2]; schedule 2, 33 patients): 9 patients
PD ([2]; schedule 2, 33 patients): 18.2%
Accumulation, steady state vs single dose [3]: 1.5-2.2 fold
Tmax [3]: 1.5 to 3 h
Cmax ([3]; 3.2 mg): 51.4 (30.5) ng/mL
AUC(0-t) ([3]; 3.2 mg, AUC0-6): 180 ng·h/mL
AUC(0-t) ([3]; 3.2 mg, AUC0-24): 407 ng·h/mL
AUC0-24 ([3]; 5 mg): 649.70 (256.151) ng·hr/mL
AUC(0-t) ([3]; 5 mg, AUC0-6): 245 ng·h/mL
Cmax ([3]; 5 mg, Cmax): 62.6 ng/mL
AUC0-6 ([3]; 8 mg): 678 (262) ng·hr/mL
AUC0-24 ([3]; 8 mg): 1819.57 (735.252) ng·hr/mL
CL/F ([3]; 8 mg): 8.05 L/h
Cmax ([3]; 8 mg): 168 (73.4) ng/mL
Tmax ([3]; 8 mg): 2.5 h
Vd/F ([3]; 8 mg): 86.8 L
AUC(0-t) ([3]; 8 mg, AUC0-6): 613 ng·h/mL
AUC(0-t) ([3]; 8 mg, AUC0-24): 1300 ng·h/mL
Cmax ([3]; 8 mg, Cmax): 177 ng/mL
AUC0-6 ([3]; 10 mg): 815(320) ng·hr/mL
AUC0-24 ([3]; 10 mg): 1984.94 (971.427) ng·hr/mL
Cmax ([3]; 10 mg): 209 (107) ng/mL
Tmax ([3]; 10 mg): 2 h
Vd/F ([3]; 10 mg): 75.4 L
tmax ([3]; 10 mg): 3.00 (0.00−6.00) hr
AUC(0-t) ([3]; 10 mg, AUC0-6): 608 ng·h/mL
AUC(0-t) ([3]; 10 mg, AUC0-24): 1370 ng·h/mL
Cmax ([3]; 10 mg, Cmax): 167 ng/mL
Tmax ([3]; 12 mg): 1.5 h
AUC(0-t) ([3]; 12 mg, AUC0-6): 913 ng·h/mL
AUC(0-t) ([3]; 12 mg, AUC0-24): 1810 ng·h/mL
Cmax ([3]; 12 mg, Cmax): 232 ng/mL
CL/F ([3]; 16 mg): 6.09 L/h
Vd/F ([3]; 16 mg): 68.5 L
AUC(0-t) ([3]; 16 mg, AUC0-6): 1510 ng·h/mL
Cmax ([3]; 16 mg, Cmax): 341 ng/mL
fe (fraction of the dose excreted in urine) ([4]; Melanoma Expansion Cohort, Cycle 1 Day 1, 10 mg, n=25): 0.45 (0.282) %
fe (fraction of the dose excreted in urine) ([4]; Melanoma Expansion Cohort, Cycle 2 Day 1, 10 mg, n=16): 0.95 (0.987) %
fe (fraction of the dose excreted in urine) ([4]; Schedule 2 continuous daily dosing, Cycle 1 Day 1, 3.2 mg, n=3): 0.37 (0.102) %
fe (fraction of the dose excreted in urine) ([4]; Schedule 2 continuous daily dosing, Cycle 1 Day 1, 5 mg, n=7): 1.47 (0.685) %
fe (fraction of the dose excreted in urine) ([4]; Schedule 2 continuous daily dosing, Cycle 1 Day 1, 8 mg, n=10): 0.83^a (0.351) %
fe (fraction of the dose excreted in urine) ([4]; Schedule 2 continuous daily dosing, Cycle 1 Day 1, 12 mg, n=4): 0.68 (0.283) %
fe (fraction of the dose excreted in urine) ([4]; Schedule 2 continuous daily dosing, Cycle 2 Day 1, 8 mg, n=6): 1.26 (1.168) %
fe (fraction of the dose excreted in urine) ([4]; Schedule 2 continuous daily dosing, Cycle 2 Day 1, 16 mg, n=6): 1.35 (0.593) %
Fraction of the dose excreted unchanged in the urine (fe) ([4]; during the 24 hours following the dose, regardless of dose): < 1.5%
VEGF-driven human umbilical vein endothelial cell proliferation [5]: inhibits
VEGF-driven human umbilical vein endothelial cell tube formation [6]: inhibits
Tumor growth [7]: significantly inhibits
Tumor growth [8]: significantly inhibits
Effect of co-administration of CYP3A4 inhibitors and inducers on exposure [9]: neither affected
